# Where a SMILES comes first, the peptide text is derived from it. [ ]: non-standard residue; d: D form. NMeBmt(8-OH) = CN[C@H](C(=O)O)[C@H](O)[C@H](C)C/C=C/CO; MeBmt = C/C=C/C[C@@H](C)[C@@H](O)[C@H](NC)C(=O)O; Val(2S-OH) = CC(C)[C@](N)(O)C(=O)O; NMeL = CN[C@@H](CC(C)C)C(=O)O; NMeV = CN[C@H](C(=O)O)C(C)C; Sar = CNCC(=O)O
# Target: ATP-dependent translocase ABCB1 (Homo sapiens, UniProt P08183)
# Assay: (§1) Inhibitory activity against Human MDR1 P-Glycoprotein ABC Transporter using leukemia CEM cells
# Settings: not given
# Chain of ATP-dependent translocase ABCB1 (P08183 whole entry): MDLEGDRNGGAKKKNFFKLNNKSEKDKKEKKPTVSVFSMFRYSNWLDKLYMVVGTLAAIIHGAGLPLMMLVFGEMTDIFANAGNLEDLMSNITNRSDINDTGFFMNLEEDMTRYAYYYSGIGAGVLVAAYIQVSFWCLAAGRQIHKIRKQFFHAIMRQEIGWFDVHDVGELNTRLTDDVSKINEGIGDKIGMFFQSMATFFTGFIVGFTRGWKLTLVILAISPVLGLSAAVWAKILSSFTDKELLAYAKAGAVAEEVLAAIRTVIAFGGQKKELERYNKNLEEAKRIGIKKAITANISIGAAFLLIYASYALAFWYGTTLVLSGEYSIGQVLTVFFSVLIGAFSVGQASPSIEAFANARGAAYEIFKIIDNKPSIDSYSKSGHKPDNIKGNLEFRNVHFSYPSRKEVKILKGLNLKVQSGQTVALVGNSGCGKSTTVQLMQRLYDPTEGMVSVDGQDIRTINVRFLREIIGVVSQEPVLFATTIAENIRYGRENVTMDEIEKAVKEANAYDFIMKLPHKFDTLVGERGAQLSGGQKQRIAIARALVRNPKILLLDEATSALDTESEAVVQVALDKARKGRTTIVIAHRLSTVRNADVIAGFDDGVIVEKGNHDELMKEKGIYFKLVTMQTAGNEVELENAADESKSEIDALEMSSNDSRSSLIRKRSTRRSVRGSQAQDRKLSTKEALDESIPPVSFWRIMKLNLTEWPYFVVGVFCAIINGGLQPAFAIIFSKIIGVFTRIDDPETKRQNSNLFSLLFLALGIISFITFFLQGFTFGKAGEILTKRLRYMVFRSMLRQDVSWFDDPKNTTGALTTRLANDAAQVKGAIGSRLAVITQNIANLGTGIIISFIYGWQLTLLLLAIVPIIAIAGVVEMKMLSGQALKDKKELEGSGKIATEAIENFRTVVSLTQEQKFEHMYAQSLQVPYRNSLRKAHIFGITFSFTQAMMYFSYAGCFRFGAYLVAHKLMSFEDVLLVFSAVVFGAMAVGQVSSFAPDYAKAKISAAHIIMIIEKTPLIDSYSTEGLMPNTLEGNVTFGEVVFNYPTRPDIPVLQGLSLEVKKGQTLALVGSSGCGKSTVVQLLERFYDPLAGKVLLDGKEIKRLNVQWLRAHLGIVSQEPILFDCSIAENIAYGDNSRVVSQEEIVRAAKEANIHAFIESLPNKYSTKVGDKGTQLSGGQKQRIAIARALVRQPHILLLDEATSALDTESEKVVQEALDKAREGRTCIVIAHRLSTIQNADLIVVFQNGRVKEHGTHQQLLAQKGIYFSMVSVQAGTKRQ
row,Structure (SMILES),IC50 [µM]
1,C/C=C/C[C@@H](C)[C@@H](O)[C@H]1C(=O)N[C@@H]([C@@H](C)O)C(=O)N(C)CC(=O)N(C)[C@@H](CC(C)C)C(=O)N[C@@H](CC(C)C)C(=O)N(C)[C@@H](CC(C)C)C(=O)N[C@@H](C)C(=O)N[C@H](C)C(=O)N(C)[C@@H](CC(C)C)C(=O)N[C@@H](C)C(=O)N(C)[C@@H](C(C)C)C(=O)N1C (cyclo(A[NMeV][MeBmt]T[Sar][NMeL]L[NMeL]A[dA][NMeL])),56
2,C/C=C/C[C@@H](C)[C@@H](O)[C@H]1C(=O)N[C@@H](CC)C(=O)N2CCC[C@H]2C(=O)N(C)[C@@H](CC(C)C)C(=O)N[C@@H](C(C)C)C(=O)N(C)[C@@H](CC(C)C)C(=O)N[C@@H](C)C(=O)N[C@H](C)C(=O)N(C)[C@@H](CC(C)C)C(=O)N(C)[C@@H](CC(C)C)C(=O)N(C)[C@@H](C(C)C)C(=O)N1C,5.2
3,CC[C@@H]1NC(=O)[C@H](CC2CCCCC2)N(C)C(=O)[C@H](C(C)C)N(C)C(=O)[C@H](CC(C)C)N(C)C(=O)[C@H](CC(C)C)N(C)C(=O)[C@@H](C)NC(=O)[C@H](C)NC(=O)[C@H](CC(C)C)N(C)C(=O)[C@H](C(C)C)NC(=O)[C@H](CC(C)C)N(C)C(=O)CN(C)C1=O,8.1
4,C/C=C/C[C@@H](C)[C@@H](O)[C@H]1C(=O)N[C@@H]([C@@H](C)O)C(=O)NCC(=O)N(C)[C@@H](CC(C)C)C(=O)N[C@@H](CC(C)C)C(=O)N(C)[C@@H](CC(C)C)C(=O)N[C@@H](C)C(=O)N[C@](O)(C(C)C)C(=O)N(C)[C@@H](CC(C)C)C(=O)N[C@@H](CC(C)C)C(=O)N(C)[C@@H](C(C)C)C(=O)N1C (cyclo(A[Val(2S-OH)][NMeL]L[NMeV][MeBmt]TG[NMeL]L[NMeL])),4
5,C/C=C/C[C@@H](C)[C@@H](O)[C@H]1C(=O)N[C@@H](CC)C(=O)NCC(=O)N(C)[C@@H](CC(C)C)C(=O)N[C@@H](C(C)C)C(=O)N(C)[C@@H](CC(C)C)C(=O)N[C@@H](C)C(=O)N[C@H](CO)C(=O)N(C)[C@@H](CC(C)C)C(=O)N(C)[C@@H](CC(C)C)C(=O)N(C)[C@@H](C(C)C)C(=O)N1C,> 30
6,C/C=C/C[C@@H](C)[C@@H](O)[C@H]1C(=O)N[C@@H]([C@@H](C)O)C(=O)N(C)CC(=O)N(C)[C@@H](CC(C)C)C(=O)N[C@@H](C(C)C)C(=O)N(C)[C@@H](CC(C)C)C(=O)N[C@@H](C)C(=O)N[C@](O)(C(C)C)C(=O)N(C)[C@@H](CC(C)C)C(=O)N[C@@H](CC(C)C)C(=O)N(C)[C@@H](C(C)C)C(=O)N1C (cyclo(A[Val(2S-OH)][NMeL]L[NMeV][MeBmt]T[Sar][NMeL]V[NMeL])),2.1
7,C/C=C/C[C@@H](C)[C@@H](O)[C@H]1C(=O)N[C@@H](CC)C(=O)N2CCC[C@@H]2C(=O)N(C)[C@@H](CC(C)C)C(=O)N[C@@H](C(C)C)C(=O)N(C)[C@@H](CC(C)C)C(=O)N[C@@H](C)C(=O)N[C@H](C)C(=O)N(C)[C@@H](CC(C)C)C(=O)N(C)[C@@H](CC(C)C)C(=O)N(C)[C@@H](C(C)C)C(=O)N1C,3.5
8,C/C=C/C[C@@H](C)[C@@H](O)[C@H]1C(=O)N[C@@H]([C@@H](C)O)C(=O)N(C)CC(=O)N[C@@H](C(C)C)C(=O)N[C@@H](C(C)C)C(=O)N(C)[C@@H](CC(C)C)C(=O)N[C@@H](C)C(=O)N[C@H](C)C(=O)N(C)[C@@H](CC(C)C)C(=O)N(C)[C@@H](CC(C)C)C(=O)N(C)[C@@H](C(C)C)C(=O)N1C,> 100
9,CCCCCC[C@H]1C(=O)N[C@@H](CC)C(=O)N(C)CC(=O)N(C)[C@@H](CC(C)C)C(=O)N[C@@H](C(C)C)C(=O)N(C)[C@@H](CC(C)C)C(=O)N[C@@H](C)C(=O)N[C@H](C)C(=O)N(C)[C@@H](CC(C)C)C(=O)N(C)[C@@H](CC(C)C)C(=O)N(C)[C@@H](C(C)C)C(=O)N1C,4
10,C/C=C/C[C@@H](C)[C@@H](O)[C@H]1C(=O)N[C@@H]([C@@H](C)O)C(=O)N(C)CC(=O)N(C)[C@@H](CC(C)C)C(=O)N[C@@H](CC(C)C)C(=O)N(C)[C@@H](CC(C)C)C(=O)N[C@@H](C)C(=O)N[C@H](C)C(=O)N(C)[C@@H](CC(C)C)C(=O)N[C@@H](CC(C)C)C(=O)N(C)[C@@H](C(C)C)C(=O)N1C (cyclo(A[dA][NMeL]L[NMeV][MeBmt]T[Sar][NMeL]L[NMeL])),6
11,CC(C)C[C@H]1C(=O)N[C@@H](C(C)C)C(=O)N(C)[C@@H](CC(C)C)C(=O)N[C@@H](C)C(=O)N[C@H](C)C(=O)N(C)[C@@H](CC(C)C)C(=O)N(C)[C@@H](CC(C)C)C(=O)N(C)[C@@H](C(C)C)C(=O)N(C)[C@@H](CC(C)C)C(=O)N[C@@H](C(C)C)C(=O)N(C)CC(=O)N1C (cyclo(A[dA][NMeL][NMeL][NMeV][NMeL]V[Sar][NMeL]V[NMeL])),7
12,C/C=C/C[C@@H](C)C[C@H]1C(=O)N[C@@H](CC)C(=O)N(C)CC(=O)N(C)[C@@H](CC(C)C)C(=O)N[C@@H](C(C)C)C(=O)N(C)[C@@H](CC(C)C)C(=O)N[C@@H](C)C(=O)N[C@H](C)C(=O)N(C)[C@@H](CC(C)C)C(=O)N(C)[C@@H](CC(C)C)C(=O)N(C)[C@@H](C(C)C)C(=O)N1C,2.2
13,C/C=C/C[C@@H](C)[C@@H](O)[C@H]1C(=O)N[C@@H]([C@@H](C)O)C(=O)N(C)CC(=O)N[C@@H](CC(C)C)C(=O)N[C@@H](CC(C)C)C(=O)N(C)[C@@H](CC(C)C)C(=O)N[C@@H](C)C(=O)N[C@](O)(C(C)C)C(=O)N(C)[C@@H](CC(C)C)C(=O)N[C@@H](CC(C)C)C(=O)N(C)[C@@H](C(C)C)C(=O)N1C (cyclo(A[Val(2S-OH)][NMeL]L[NMeV][MeBmt]T[Sar]LL[NMeL])),4.3
14,C/C=C/C[C@@H](C)[C@@H](O)[C@H]1C(=O)N[C@@H]([C@@H](C)O)C(=O)N(C)CC(=O)N(C)[C@@H](CC(C)C)C(=O)N[C@@H](CC(C)C)C(=O)N(C)[C@@H](CC(C)C)C(=O)N[C@@H](C)C(=O)N[C@](O)(C(C)C)C(=O)N(C)[C@@H](CC(C)C)C(=O)N[C@@H](CC(C)C)C(=O)N(C)[C@@H](C(C)C)C(=O)N1C (cyclo(A[Val(2S-OH)][NMeL]L[NMeV][MeBmt]T[Sar][NMeL]L[NMeL])),1.6

# Target: MDR1 P-glycoprotein (ABCB1) (Homo sapiens, UniProt P08183)
# Sequence (P08183 whole entry): as above
# Assay: as §1
# Settings: human, leukemia CEM cells
row,Structure (SMILES),IC50 [µM]
1,CC(C)C[C@@H]1NC(=O)[C@H](CC(C)C)N(C)C(=O)[C@@](O)(C(C)C)NC(=O)[C@H](C)NC(=O)[C@H](CC(C)C)N(C)C(=O)[C@H](CC(C)C)NC(=O)[C@H](CC(C)C)N(C)C(=O)CN(C)C(=O)[C@H]([C@@H](C)O)NC(=O)[C@H]([C@H](O)[C@H](C)C/C=C/CO)N(C)C(=O)[C@H](C(C)C)N(C)C1=O (cyclo(A[Val(2S-OH)][NMeL]L[NMeV][NMeBmt(8-OH)]T[Sar][NMeL]L[NMeL])),15.8
2,CC[C@@H]1NC(=O)[C@H](C2CCCCC2C)N(C)C(=O)[C@H](C(C)C)N(C)C(=O)[C@H](CC(C)C)N(C)C(=O)[C@H](CC(C)C)N(C)C(=O)[C@@H](C)NC(=O)[C@H](C)NC(=O)[C@H](CC(C)C)N(C)C(=O)[C@H](C(C)C)NC(=O)[C@H](CC(C)C)N(C)C(=O)CN(C)C1=O (some centres undefined),13.1
3,CC/C=C/C[C@@H](C)[C@@H](O)[C@H]1C(=O)N[C@@H](CC)C(=O)N(C)[C@@H](Cc2ccccc2)C(=O)N(C)[C@H](CC(C)C)C(=O)N[C@H](C(C)C)C(=O)N(C)[C@H](CC(C)C)C(=O)N[C@@H](C)C(=O)N[C@H](C)C(=O)N(C)[C@@H](CC(C)C)C(=O)N(C)[C@@H](CC(C)C)C(=O)N(C)[C@@H](C(C)C)C(=O)N1C,1.5
4,C/C=C/C[C@@H](C)[C@@H](O)C1NC(=O)[C@H](C(C)C)N(C)C(=O)[C@H](CC(C)C)N(C)C(=O)[C@H](CC(C)C)N(C)C(=O)[C@@H](C)NC(=O)[C@H](C)NC(=O)[C@@H](CC(C)C)N(C)C(=O)[C@@H](C(C)C)NC(=O)[C@@H](CC(C)C)N(C)C(=O)CN(C)C(=O)[C@H]([C@@H](C)O)NC1=O (some centres undefined),17
5,C/C=C/C[C@@H](C)[C@@H](O)[C@H]1C(=O)N[C@@H]([C@@H](C)O)C(=O)N(C)CC(=O)N(C)[C@@H](CC(C)C)C(=O)N[C@@H]([C@@H](C)CC)C(=O)N(C)[C@@H](CC(C)C)C(=O)N[C@@H](C)C(=O)N[C@](O)(C(C)C)C(=O)N(C)[C@@H](CC(C)C)C(=O)N[C@@H](CC(C)C)C(=O)N(C)[C@@H](C(C)C)C(=O)N1C (cyclo(A[Val(2S-OH)][NMeL]L[NMeV][MeBmt]T[Sar][NMeL]I[NMeL])),1.6

# Source: ChEMBL document CHEMBL1135619, “Cyclosporins: structure-activity relationships for the inhibition of the human MDR1 P-glycoprotein ABC transporter” (J Med Chem, 2002)
